Data as given in article PMC9025901, “New Genetic Bomb Trigger: Design, Synthesis, Molecular Dynamics Simulation, and Biological Evaluation of Novel BIBR1532-Related Analogs Targeting Telomerase against Non-Small Cell Lung Cancer” (Pharmaceuticals, 2022).

Key:
[1] = molecular target: T1, telomerase inside living cancer cells HCC44 (Homo sapiens, UniProt O14746); experiment: Living-cell TRAP assay, HCC44; type: cell-based; conditions: percent of control cells, 10 µM, 48 h
T1 construct: host or cells: HCC44
T1 sequence (O14746 whole entry): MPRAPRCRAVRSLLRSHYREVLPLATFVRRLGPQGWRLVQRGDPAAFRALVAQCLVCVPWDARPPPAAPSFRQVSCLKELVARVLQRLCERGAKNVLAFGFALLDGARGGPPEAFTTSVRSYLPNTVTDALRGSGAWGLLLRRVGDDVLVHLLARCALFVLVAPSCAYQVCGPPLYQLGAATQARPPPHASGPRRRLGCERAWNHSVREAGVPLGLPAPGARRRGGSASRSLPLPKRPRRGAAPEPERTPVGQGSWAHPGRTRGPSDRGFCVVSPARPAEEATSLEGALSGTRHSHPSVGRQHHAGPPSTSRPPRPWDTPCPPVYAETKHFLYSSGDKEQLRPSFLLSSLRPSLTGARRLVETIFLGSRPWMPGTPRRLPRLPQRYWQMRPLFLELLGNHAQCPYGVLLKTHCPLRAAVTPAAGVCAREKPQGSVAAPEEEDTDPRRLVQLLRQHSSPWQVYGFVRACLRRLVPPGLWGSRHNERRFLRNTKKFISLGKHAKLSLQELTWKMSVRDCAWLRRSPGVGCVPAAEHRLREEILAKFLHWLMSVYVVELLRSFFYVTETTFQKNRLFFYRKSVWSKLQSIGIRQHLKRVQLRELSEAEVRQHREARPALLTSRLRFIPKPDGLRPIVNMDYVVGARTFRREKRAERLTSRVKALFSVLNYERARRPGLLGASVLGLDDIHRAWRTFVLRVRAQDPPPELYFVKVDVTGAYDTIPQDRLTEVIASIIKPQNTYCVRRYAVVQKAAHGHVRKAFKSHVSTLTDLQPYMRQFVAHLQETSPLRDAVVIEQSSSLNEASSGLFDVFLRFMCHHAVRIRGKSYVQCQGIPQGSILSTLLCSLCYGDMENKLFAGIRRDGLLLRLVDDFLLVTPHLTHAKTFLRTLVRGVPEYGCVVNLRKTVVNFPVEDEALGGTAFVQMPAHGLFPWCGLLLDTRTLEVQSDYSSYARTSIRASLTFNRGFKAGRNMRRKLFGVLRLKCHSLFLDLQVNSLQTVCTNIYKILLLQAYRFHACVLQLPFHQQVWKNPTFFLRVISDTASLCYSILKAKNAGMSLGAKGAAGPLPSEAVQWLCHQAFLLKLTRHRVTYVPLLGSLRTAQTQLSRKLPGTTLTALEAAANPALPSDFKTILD
T1 sequence (O60832 whole entry partner): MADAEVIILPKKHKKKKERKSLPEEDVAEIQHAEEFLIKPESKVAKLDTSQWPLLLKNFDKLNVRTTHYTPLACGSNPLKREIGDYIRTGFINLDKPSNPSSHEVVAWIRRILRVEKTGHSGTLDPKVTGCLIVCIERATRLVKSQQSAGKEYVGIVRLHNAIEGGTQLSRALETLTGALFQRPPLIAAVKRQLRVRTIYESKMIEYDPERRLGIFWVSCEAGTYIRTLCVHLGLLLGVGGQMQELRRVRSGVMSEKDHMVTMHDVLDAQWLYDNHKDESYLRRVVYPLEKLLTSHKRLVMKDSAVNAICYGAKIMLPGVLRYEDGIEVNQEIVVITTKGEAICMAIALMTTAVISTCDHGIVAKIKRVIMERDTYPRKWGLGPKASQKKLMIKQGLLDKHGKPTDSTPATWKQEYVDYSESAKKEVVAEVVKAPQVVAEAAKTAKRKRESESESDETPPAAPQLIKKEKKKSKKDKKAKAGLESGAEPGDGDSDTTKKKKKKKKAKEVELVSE
T1 sequence (Q9NX24 whole entry partner): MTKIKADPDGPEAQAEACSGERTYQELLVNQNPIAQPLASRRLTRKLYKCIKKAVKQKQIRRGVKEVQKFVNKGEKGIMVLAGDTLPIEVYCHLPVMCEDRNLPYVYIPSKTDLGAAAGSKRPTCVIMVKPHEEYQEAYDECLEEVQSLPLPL
T1 sequence (Q9NPE3 whole entry partner): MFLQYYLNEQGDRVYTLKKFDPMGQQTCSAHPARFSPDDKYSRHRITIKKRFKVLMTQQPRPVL
T1 sequence (Q9NY12 whole entry partner): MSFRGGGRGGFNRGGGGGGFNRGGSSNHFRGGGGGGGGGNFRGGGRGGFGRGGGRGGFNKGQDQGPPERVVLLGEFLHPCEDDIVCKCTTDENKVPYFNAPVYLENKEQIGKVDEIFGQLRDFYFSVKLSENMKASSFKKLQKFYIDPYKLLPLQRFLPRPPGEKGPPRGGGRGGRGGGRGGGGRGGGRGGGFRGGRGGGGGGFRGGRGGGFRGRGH
T1 sequence (Q9BUR4 whole entry partner): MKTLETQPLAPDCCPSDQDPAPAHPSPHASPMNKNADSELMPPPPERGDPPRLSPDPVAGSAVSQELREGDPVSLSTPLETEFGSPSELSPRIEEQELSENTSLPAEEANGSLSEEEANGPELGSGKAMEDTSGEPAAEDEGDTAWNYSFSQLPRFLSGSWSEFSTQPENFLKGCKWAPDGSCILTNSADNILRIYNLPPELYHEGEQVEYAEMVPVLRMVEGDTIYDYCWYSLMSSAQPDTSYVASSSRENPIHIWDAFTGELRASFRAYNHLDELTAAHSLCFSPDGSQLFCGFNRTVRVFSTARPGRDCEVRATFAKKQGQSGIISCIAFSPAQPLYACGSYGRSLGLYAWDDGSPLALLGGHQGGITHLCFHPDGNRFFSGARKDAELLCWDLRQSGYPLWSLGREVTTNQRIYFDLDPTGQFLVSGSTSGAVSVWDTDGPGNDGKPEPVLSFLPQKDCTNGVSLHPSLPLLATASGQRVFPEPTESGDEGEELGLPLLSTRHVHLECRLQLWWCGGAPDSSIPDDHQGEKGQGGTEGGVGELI
Procedure: (§1) The Telomeric Repeat Amplification Protocol (TRAP) [61] was used to evaluate the activity of telomerase, with some changes that we have previously described [62, 63]. A549 cells (human epithelial cell lung carcinoma, ATCC, Manassas, VA) were lysed in (10 mM) Tris-HCl, pH 7.5, (1 mM) EGTA, (1 mM) MgCl2, (5 mM) 2-mercaptoethanol, (0.1 mM) PMSF, (0.5%) CHAPS, and (10%) glycerol (Sigma-Aldrich, St. Louis, MO, USA) and centrifugation. The supernatants were kept at -80 °C. The BCA-1 Protein Assay Kit was used to assess the protein concentration in cell extracts (Sigma-Aldrich, St. Louis, MO, USA). […] To inactivate telomerase, the cells were elongated for 30 min at 37 °C and 10 min at 96 °C. Copy CX-primer was added to the elongation mixture along with 0.1 μL ([NT]) and 2.5 units Taq-polymerase, followed by the following PCR: 94 °C for 5 min; 30 cycles of 94 °C for 30 s, 50 °C for 30 s, and 72 °C for 40 s, and 72 °C for 5 min. TBE buffer and (12%) nondenaturing PAAG electrophoresis were used to visualize the PCR product. 10 μL of each sample was placed in each well of gel comb. The gels were stained with the SYBR Green I (Invitrogen, Grand Island, NY, USA), then photographed under the UV light in ChemiDocTM XRS imaging system and analyzed with GelAnalyzer 2010.

[2] = molecular target: T2, telomerase inside living cancer cells NCI-H23 (Homo sapiens, UniProt O14746); experiment: Living-cell TRAP assay, NCI-H23; type: cell-based; conditions: percent of control cells, 10 µM, 48 h
T2 construct: host or cells: NCI-H23
T2 sequence (O14746 whole entry): as the sequence (O14746 whole entry) above
T2 sequence (O60832 whole entry partner): as the sequence (O60832 whole entry partner) above
T2 sequence (Q9NX24 whole entry partner): as the sequence (Q9NX24 whole entry partner) above
T2 sequence (Q9NPE3 whole entry partner): as the sequence (Q9NPE3 whole entry partner) above
T2 sequence (Q9NY12 whole entry partner): as the sequence (Q9NY12 whole entry partner) above
T2 sequence (Q9BUR4 whole entry partner): as the sequence (Q9BUR4 whole entry partner) above
Procedure: as §1

[3] = test system: HL-60(TB); experiment: NCI-60 in vitro anticancer screening (SRB); type: cell-based, human; conditions: Leukemia, 10 µM, 48 h
[4] = test system: CCRF-CEM; experiment: NCI-60 in vitro anticancer screening (SRB); conditions: Leukemia, 10 µM, 48 h
Procedure: (§2) The cancer screening panel’s human tumor 60 cell lines were cultured in the RPMI 1640 medium with (5%) fetal bovine serum and (2 mM) L-glutamine. For a screening experiment, cells were injected onto 96-well microtiter plates (100 µL), with plating densities varying from 5 to 40 × 10^3 cells per well, depending on different cell lines’ doubling times. Before introducing experimental drugs, the microtiter plates were incubated overnight at 37 °C, 95% air, 5% CO2, and 100% relative humidity after cell injection. TCA was employed to keep each cell line in place overnight, resembling a computation of the cell population for every cell line at the time of the addition of the drug. The experimental drugs were chilled after solubilization in DMSO at 400 times the final maximum test concentration. At the moment of the addition of the drug, the aliquot of the frozen concentrate was thawed and diluted to twice the required final maximum concentration with the complete medium containing (50 µg/mL) gentamicin. The required final concentration of the drug (10 µM) was reached by adding 100 µL aliquots of these definite dilutions of the drug to suitable microtiter wells previously holding a medium of 100 µL. […] The bound dye was then solubilized with a (10 mM) trizma base, and absorbance was calculated at 515 nm on an automatic reader. […]

[5] = test system: RPMI-8226; experiment: NCI-60 in vitro anticancer screening (SRB); conditions: RPMI-8226, Leukemia; 10 µM, 48 h
Procedure: (§3) The cancer screening panel’s human tumor 60 cell lines were cultured in the RPMI 1640 medium with (5%) fetal bovine serum and (2 mM) L-glutamine. For a screening experiment, cells were injected onto 96-well microtiter plates (100 µL), with plating densities varying from 5 to 40 × 10^3 cells per well, depending on different cell lines’ doubling times. Before introducing experimental drugs, the microtiter plates were incubated overnight at 37 °C, 95% air, 5% CO2, and 100% relative humidity after cell injection. TCA was employed to keep each cell line in place overnight, resembling a computation of the cell population for every cell line at the time of the addition of the drug. The experimental drugs were chilled after solubilization in DMSO at 400 times the final maximum test concentration. At the moment of the addition of the drug, the aliquot of the frozen concentrate was thawed and diluted to twice the required final maximum concentration with the complete medium containing (50 µg/mL) gentamicin. […] The bound dye was then solubilized with a (10 mM) trizma base, and absorbance was calculated at 515 nm on an automatic reader. […] The % growth of treated cells was established using seven absorbance measurements and compared to untreated control cells [57].

[6] = test system: SR; experiment: NCI-60 in vitro anticancer screening (SRB); conditions: Leukemia, 10 µM, 48 h
Procedure: as §3

[7] = test system: A549/ATCC; experiment: NCI-60 in vitro anticancer screening (SRB); conditions: Lung cancer (NSCLC), 10 µM, 48 h
Procedure: as §3

[8] = test system: HOP-92; experiment: NCI-60 in vitro anticancer screening (SRB); conditions: HOP-92, Lung cancer (NSCLC); 10 µM, 48 h
Procedure: as §3

[9] = test system: NCI-H23; experiment: NCI-60 in vitro anticancer screening (SRB); conditions: NCI-H23, Lung cancer (NSCLC); 10 µM, 48 h
Procedure: as §3

[10] = test system: NCI-H322M; experiment: NCI-60 in vitro anticancer screening (SRB); conditions: Lung cancer (NSCLC), 10 µM, 48 h
Procedure: as §3

[11] = test system: NCI-H460; experiment: NCI-60 in vitro anticancer screening (SRB); conditions: NCI-H460, Lung cancer (NSCLC); 10 µM, 48 h
Procedure: as §3

[12] = test system: NCI-H522; experiment: NCI-60 in vitro anticancer screening (SRB); conditions: NCI-H522, Lung cancer (NSCLC); 10 µM, 48 h
Procedure: as §3

[13] = test system: COLO 205; experiment: NCI-60 in vitro anticancer screening (SRB); conditions: COLO 205, Colon cancer; 10 µM, 48 h
Procedure: as §3

[14] = test system: HCT-116; experiment: NCI-60 in vitro anticancer screening (SRB); conditions: HCT-116, Colon cancer; 10 µM, 48 h
Procedure: as §3

[15] = test system: KM12; experiment: NCI-60 in vitro anticancer screening (SRB); conditions: KM12, Colon cancer; 10 µM, 48 h
Procedure: as §3

[16] = test system: SW-620; experiment: NCI-60 in vitro anticancer screening (SRB); conditions: SW-620, Colon cancer; 10 µM, 48 h
Procedure: as §3

[17] = test system: SNB-19; experiment: NCI-60 in vitro anticancer screening (SRB); conditions: SNB-19, CNS cancer; 10 µM, 48 h
Procedure: as §3

[18] = test system: SNB-75; experiment: NCI-60 in vitro anticancer screening (SRB); conditions: SNB-75, CNS cancer; 10 µM, 48 h
Procedure: as §3

[19] = test system: U251; experiment: NCI-60 in vitro anticancer screening (SRB); conditions: U251, CNS cancer; 10 µM, 48 h
Procedure: as §3

[20] = test system: MALME-3M; experiment: NCI-60 in vitro anticancer screening (SRB); conditions: Melanoma, 10 µM, 48 h
Procedure: as §3

[21] = test system: MDA-MB-435; experiment: NCI-60 in vitro anticancer screening (SRB); conditions: MDA-MB-435, Melanoma; 10 µM, 48 h
Procedure: as §2

[22] = test system: SK-MEL-2; experiment: NCI-60 in vitro anticancer screening (SRB); conditions: SK-MEL-2, Melanoma; 10 µM, 48 h
Procedure: as §2

[23] = test system: SK-MEL-5; experiment: NCI-60 in vitro anticancer screening (SRB); conditions: SK-MEL-5, Melanoma; 10 µM, 48 h
Procedure: as §2

[24] = test system: UACC-62; experiment: NCI-60 in vitro anticancer screening (SRB); conditions: UACC-62, Melanoma; 10 µM, 48 h
Procedure: as §3

[25] = test system: OVCAR-3; experiment: NCI-60 in vitro anticancer screening (SRB); conditions: OVCAR-3, Ovarian cancer; 10 µM, 48 h
Procedure: as §3

[26] = test system: OVCAR-5; experiment: NCI-60 in vitro anticancer screening (SRB); conditions: OVCAR-5, Ovarian cancer; 10 µM, 48 h
Procedure: as §3

[27] = test system: SK-OV-3; experiment: NCI-60 in vitro anticancer screening (SRB); conditions: SK-OV-3, Ovarian cancer; 10 µM, 48 h
Procedure: as §3

[28] = test system: 786-0; experiment: NCI-60 in vitro anticancer screening (SRB); conditions: 786-0, Renal cancer; 10 µM, 48 h
Procedure: as §3

[29] = test system: A498; experiment: NCI-60 in vitro anticancer screening (SRB); conditions: A498, Renal cancer; 10 µM, 48 h
Procedure: as §2

[30] = test system: RXF 393; experiment: NCI-60 in vitro anticancer screening (SRB); conditions: RXF 393, Renal cancer; 10 µM, 48 h
Procedure: as §2

[31] = test system: SN12C; experiment: NCI-60 in vitro anticancer screening (SRB); conditions: Renal cancer, 10 µM, 48 h
Procedure: as §3

[32] = test system: TK-10; experiment: NCI-60 in vitro anticancer screening (SRB); conditions: TK-10, Renal cancer; 10 µM, 48 h
Procedure: as §3

[33] = test system: HS 578T; experiment: NCI-60 in vitro anticancer screening (SRB); conditions: Breast cancer, 10 µM, 48 h
Procedure: as §2

[34] = test system: BT-549; experiment: NCI-60 in vitro anticancer screening (SRB); conditions: BT-549, Breast cancer; 10 µM, 48 h
Procedure: as §2

With `N#C/C(=C\c1ccc2ccccc2c1)C(=O)Nc1sc2c(c1C#N)CCCC2` [Compound 36b, (2E)-2-Cyano-N-(3-cyano-4,5,6,7-tetrahydro-1-benzothiophen-2-yl)-3-(naphthalen-2-yl)prop-2-enamide] the “% Telomerase Activity in Cancer Cells” value [1] was 54.4 ± 4.4%, the “% Telomerase Activity in Cancer Cells” value [2] was 25.1 ± 3.2% and the “Growth Percent” value [3] was 99.47%. The “Growth Percent” value [4] was 104.69%, the “Growth Percent” value [5] was 99.85% and the “Growth Percent” value [6] was 95.72%. The “Growth Percent” value [7] was 100.18%, the “Growth Percent” value [8] was 90.75% and the “Growth Percent” value [9] was 94.56%. The “Growth Percent” value [10] was 98.58%, the “Growth Percent” value [11] was 102.88% and the “Growth Percent” value [12] was 94.31%. For the same compound, the “Growth Percent” value [13] was 103.10%, the “Growth Percent” value [14] was 100.18% and the “Growth Percent” value [15] was 101.43%. For the same compound, the “Growth Percent” value [16] was 103.69%, the “Growth Percent” value [17] was 100.30% and the “Growth Percent” value [18] was 101.09%. For the same compound, the “Growth Percent” value [19] was 98.73%, the “Growth Percent” value [20] was 109.97% and the “Growth Percent” value [21] was 101.92%. The “Growth Percent” value [22] was 100.31%, the “Growth Percent” value [23] was 97.65% and the “Growth Percent” value [24] was 91.73%. For the same compound, the “Growth Percent” value [25] was 98.78%, the “Growth Percent” value [26] was 104.98% and the “Growth Percent” value [27] was 89.18%. The “Growth Percent” value [28] was 101.2%, the “Growth Percent” value [29] was 99.38% and the “Growth Percent” value [30] was 111.16%. The “Growth Percent” value [31] was 100.72%, the “Growth Percent” value [32] was 113.35% and the “Growth Percent” value [33] was 103.54%. For the same compound, the “Growth Percent” value [34] was 107.71%.
